Substitutions are numbered along the chain they refer to.
Assays:
ALK2 [1] = target: T1, ALK2 (Mus musculus, UniProt P37172); assay: HTRF pSMAD1 cell-based ALK2 assay (C2C12 cells, BMP6 as agonist); conditions: cell-based assay, BMP6; read-out: Cell IC50 BMP6
T1 construct: The C2C12 cell line was selected for the measurement of ALK2 activity using BMP6 as the agonist; host or cells: C2C12
T1 sequence (P37172 21-509): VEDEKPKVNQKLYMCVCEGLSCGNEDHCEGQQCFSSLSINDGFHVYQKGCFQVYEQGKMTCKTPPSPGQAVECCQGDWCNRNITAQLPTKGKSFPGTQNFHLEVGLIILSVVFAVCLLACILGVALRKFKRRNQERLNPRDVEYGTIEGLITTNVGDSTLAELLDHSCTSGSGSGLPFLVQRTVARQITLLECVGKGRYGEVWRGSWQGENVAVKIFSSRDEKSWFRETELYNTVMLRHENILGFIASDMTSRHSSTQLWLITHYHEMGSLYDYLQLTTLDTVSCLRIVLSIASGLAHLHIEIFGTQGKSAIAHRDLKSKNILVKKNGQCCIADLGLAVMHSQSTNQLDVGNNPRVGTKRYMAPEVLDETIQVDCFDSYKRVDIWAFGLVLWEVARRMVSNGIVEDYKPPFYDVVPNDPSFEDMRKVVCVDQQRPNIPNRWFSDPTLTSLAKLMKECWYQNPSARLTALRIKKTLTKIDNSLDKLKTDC
Procedure, shortened: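 Cells pre-starved, plated in 0.1% FBS medium for 4 h, compound added for 30 min, then stimulated 30 min with BMP9 (BAOEC) or BMP6 (C2C12). Phospho-SMAD1 measured by HTRF after overnight room-temperature detection incubation.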

[2] = Cell-based assay, TGFb1 (Cell IC50)
ALK1 = ALK1 (Homo sapiens, UniProt P37023); assay: TR-FRET enzymatic ALK kinase assay, ALK1
Method: (§1) Briefly, the ALKs enzymatic assay was initiated by dispense 2.5 μl enzyme in 1× kinase reaction buffer. The assay plate was then added with compounds followed by incubation at room temperature for 10 minutes. Then 2.5 μl/well substrate was added.

ALK2 [3] = target: T2, ALK2 (Homo sapiens, UniProt Q04771); assay: TR-FRET enzymatic ALK kinase assay, ALK2
T2 sequence (Q04771 21-509): T1 sequence (P37172 21-509) with V1M, Q10P, I121L, E162D, S310P
Method: as §1

ALK3 = ALK3 (Homo sapiens, UniProt P36894); assay: TR-FRET enzymatic ALK kinase assay, ALK3
Method: as §1

ALK4 = target: T3, ALK4 (Homo sapiens, UniProt P36896); assay: TR-FRET enzymatic ALK kinase assay, ALK4
T3 sequence (P36896 24-505): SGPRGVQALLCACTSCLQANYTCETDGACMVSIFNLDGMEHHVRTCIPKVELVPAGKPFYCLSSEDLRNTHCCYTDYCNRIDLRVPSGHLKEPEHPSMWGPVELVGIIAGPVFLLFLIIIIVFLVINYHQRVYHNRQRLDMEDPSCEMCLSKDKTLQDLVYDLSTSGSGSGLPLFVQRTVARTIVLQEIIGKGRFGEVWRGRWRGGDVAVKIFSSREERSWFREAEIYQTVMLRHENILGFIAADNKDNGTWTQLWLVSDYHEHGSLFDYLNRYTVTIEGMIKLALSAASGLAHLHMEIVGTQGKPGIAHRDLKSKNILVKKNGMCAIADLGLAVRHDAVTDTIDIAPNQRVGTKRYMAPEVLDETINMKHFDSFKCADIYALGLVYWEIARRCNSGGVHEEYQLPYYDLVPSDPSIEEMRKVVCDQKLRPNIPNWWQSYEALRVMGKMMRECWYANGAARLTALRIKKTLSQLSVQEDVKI
Method: as §1

ALK5 = target: T4, ALK5 (Homo sapiens, UniProt P36897); assay: TR-FRET enzymatic ALK kinase assay, ALK5
T4 sequence (P36897 34-503): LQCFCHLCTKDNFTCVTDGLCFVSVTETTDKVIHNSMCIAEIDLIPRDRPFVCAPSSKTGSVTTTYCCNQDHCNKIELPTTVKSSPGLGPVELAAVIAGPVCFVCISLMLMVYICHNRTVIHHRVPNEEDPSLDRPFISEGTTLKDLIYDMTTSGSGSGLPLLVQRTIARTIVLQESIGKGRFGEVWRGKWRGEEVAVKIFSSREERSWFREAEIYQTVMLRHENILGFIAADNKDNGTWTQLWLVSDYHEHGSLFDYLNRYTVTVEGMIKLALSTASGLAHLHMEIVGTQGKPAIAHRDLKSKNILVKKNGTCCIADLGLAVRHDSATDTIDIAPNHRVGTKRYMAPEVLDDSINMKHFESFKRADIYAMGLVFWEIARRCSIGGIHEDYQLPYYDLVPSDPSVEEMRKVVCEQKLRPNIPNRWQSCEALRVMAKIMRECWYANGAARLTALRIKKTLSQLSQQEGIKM
Method: Six ALK kinase enzyme assays were developed for determination of compound activities on ALK1, ALK2, ALK3, ALK4, ALK5 and ALK6.
as §1

ALK6 = ALK6 (Homo sapiens, UniProt O00238); assay: TR-FRET enzymatic ALK kinase assay, ALK6
Sequence of ALK6 (O00238 14-502): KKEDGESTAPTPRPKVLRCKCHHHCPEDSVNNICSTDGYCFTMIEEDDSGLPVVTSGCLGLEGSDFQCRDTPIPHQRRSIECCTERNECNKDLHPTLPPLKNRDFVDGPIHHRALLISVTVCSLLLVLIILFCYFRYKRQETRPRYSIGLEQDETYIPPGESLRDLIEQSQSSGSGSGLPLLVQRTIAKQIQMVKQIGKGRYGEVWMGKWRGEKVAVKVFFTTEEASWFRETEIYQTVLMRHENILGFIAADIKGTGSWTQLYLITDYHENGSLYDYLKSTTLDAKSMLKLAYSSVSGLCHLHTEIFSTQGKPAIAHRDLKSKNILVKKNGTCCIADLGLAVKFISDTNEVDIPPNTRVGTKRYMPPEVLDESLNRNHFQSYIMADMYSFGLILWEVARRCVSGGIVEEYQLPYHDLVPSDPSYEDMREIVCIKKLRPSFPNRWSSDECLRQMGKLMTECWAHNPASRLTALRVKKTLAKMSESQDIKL
Method: as §1

Sequence of ALK3 (P36894 24-532): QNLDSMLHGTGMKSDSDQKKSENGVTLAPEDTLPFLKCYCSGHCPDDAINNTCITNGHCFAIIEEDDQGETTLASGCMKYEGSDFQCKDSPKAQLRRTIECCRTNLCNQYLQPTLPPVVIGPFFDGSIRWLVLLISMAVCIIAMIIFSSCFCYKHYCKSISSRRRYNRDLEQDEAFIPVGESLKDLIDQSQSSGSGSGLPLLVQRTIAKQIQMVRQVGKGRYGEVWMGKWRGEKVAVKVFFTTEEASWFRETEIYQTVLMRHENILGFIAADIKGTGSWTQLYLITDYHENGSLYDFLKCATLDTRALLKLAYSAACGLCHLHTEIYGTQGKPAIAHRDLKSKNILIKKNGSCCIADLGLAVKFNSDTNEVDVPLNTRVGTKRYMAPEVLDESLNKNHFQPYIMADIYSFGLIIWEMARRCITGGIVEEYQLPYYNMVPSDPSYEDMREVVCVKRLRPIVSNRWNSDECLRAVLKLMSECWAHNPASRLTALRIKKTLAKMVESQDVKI
Sequence of ALK1 (P37023 22-503): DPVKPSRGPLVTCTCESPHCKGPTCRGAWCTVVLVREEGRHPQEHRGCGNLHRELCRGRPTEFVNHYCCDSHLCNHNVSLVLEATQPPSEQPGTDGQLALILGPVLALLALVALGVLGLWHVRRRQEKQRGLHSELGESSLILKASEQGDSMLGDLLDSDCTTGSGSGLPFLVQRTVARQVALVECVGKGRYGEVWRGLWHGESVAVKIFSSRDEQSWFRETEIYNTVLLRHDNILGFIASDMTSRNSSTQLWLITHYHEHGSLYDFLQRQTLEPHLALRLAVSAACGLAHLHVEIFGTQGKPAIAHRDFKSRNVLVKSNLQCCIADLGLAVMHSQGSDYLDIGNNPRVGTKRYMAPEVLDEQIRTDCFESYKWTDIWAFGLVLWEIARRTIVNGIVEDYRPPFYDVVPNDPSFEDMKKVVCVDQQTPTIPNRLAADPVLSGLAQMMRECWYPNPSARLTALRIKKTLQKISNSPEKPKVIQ

Row | Compound | IC50 (ALK2 [1]) | IC50 [2] | IC50 (ALK1) | IC50 (ALK2 [3]) | IC50 (ALK3) | IC50 (ALK4) | IC50 (ALK5) | IC50 (ALK6)
1 | C[C@@H]1CNC[C@H](C)N1c1ccc(-c2cnc3c(-c4cccc(C(F)(F)F)c4)cnn3c2)cc1 [Compound 81, 6-(4-((2R,6S)-2,6-dimethylpiperazin-1-yl)phenyl)-3-(3-(trifluoromethyl)phenyl)pyrazolo[1,5-a]pyrimidine] | 27400 nM | > 100000 nM | 880 nM | 170 nM | > 10000 nM | > 10000 nM | > 10000 nM | > 10000 nM
2 | CNS(=O)(=O)c1cccc(-c2cnn3cc(-c4ccc(N5[C@H](C)CNC[C@@H]5C)cc4)cnc23)c1 [Compound 76, 3-(6-(4-((2R,6S)-2,6-dimethylpiperazin-1-yl)phenyl)pyrazolo[1,5-a]pyrimidin-3-yl)-N-methylbenzenesulfonamide] | 67 nM | 790 nM | 58 nM | 20 nM | 890 nM | 4800 nM | > 10000 nM | > 10000 nM
3 | Fc1ccc(-c2cnn3cc(-c4ccc(CCN5CCCCC5)cc4)cnc23)cc1-c1nnn[nH]1 [Compound 78, 3-(4-fluoro-3-(1H-tetrazol-5-yl)phenyl)-6-(4-(2-(piperidin-1-yl)ethyl)phenyl)pyrazolo[1,5-a]pyrimidine] | 70000 nM | 100000 nM | 150 nM | 16 nM | 190 nM | > 10000 nM | > 10000 nM | 240 nM
4 | C[C@@H]1CNC[C@H](C)N1c1ccc(-c2cnc3c(-c4cc(C#N)cc(S(N)(=O)=O)c4)cnn3c2)cc1 [Compound 79, 3-cyano-5-(6-(4-((2R,6S)-2,6-dimethylpiperazin-1-yl)phenyl)pyrazolo[1,5-a]pyrimidin-3-yl)benzenesulfonamide] | 8930 nM | 10100 nM | 1200 nM | 190 nM | > 10000 nM | > 10000 nM | > 10000 nM | > 10000 nM
5 | C[C@@H]1CNC[C@H](C)N1c1ccc(-c2cnc3c(-c4cccc5c(CO)cccc45)cnn3c2)cc1 [Compound 20, (5-(6-(4-((2R,6S)-2,6-dimethylpiperazin-1-yl)phenyl)pyrazolo[1,5-a]pyrimidin-3-yl)naphthalen-1-yl)methanol] | 14 nM | 1550 nM | 22 nM | 16 nM | 240 nM | 3960 nM | 21700 nM | 3710 nM
6 | NS(=O)(=O)c1cccc(-c2cnn3cc(-c4ccc(C5CCNCC5)cc4)cnc23)c1 [Compound 95, 3-(6-(4-(piperidin-4-yl)phenyl)pyrazolo[1,5-a]pyrimidin-3-yl)benzenesulfonamide] | 1500 nM | 64 nM | 520 nM | 79 nM | 9700 nM | > 10000 nM | > 10000 nM | > 10000 nM

Further lines, results first:

Row | IC50 (ALK2 [1]) | IC50 [2] | IC50 (ALK1) | IC50 (ALK2 [3]) | IC50 (ALK3) | IC50 (ALK4) | IC50 (ALK5) | IC50 (ALK6) | Compound
7 | 28 nM | 331 nM | 18 nM | 4.5 nM | 147 nM | 11200 nM | 56600 nM | 2070 nM | NC(=O)c1ccc(-c2cnn3cc(-c4ccc(N5CCNCC5)cc4)cnc23)c2ccccc12 [Compound 2, 4-(6-(4-(piperazin-1-yl)phenyl)pyrazolo[1,5-a]pyrimidin-3-yl)-1-naphthamide]
8 | 152 nM | 919 nM | 240 nM | 66 nM | 4900 nM | 6000 nM | > 10000 nM | > 10000 nM | CC(C)(CN1CCCCC1)Oc1ccc(-c2cnc3c(-c4cccc(S(N)(=O)=O)c4)cnn3c2)cc1 [Compound 96, 3-(6-(4-((2-methyl-1-(piperidin-1-yl)propan-2-yl)oxy)phenyl)pyrazolo[1,5-a]pyrimidin-3-yl)benzenesulfonamide]
9 | 148 nM | 2940 nM | 540 nM | 120 nM | 1600 nM | > 10000 nM | > 10000 nM | 6500 nM | CNS(=O)(=O)c1cccc2c(-c3cnn4cc(-c5ccc(N6[C@H](C)CNC[C@@H]6C)cc5)cnc34)cccc12 [Compound 41, 5-(6-(4-((2R,6S)-2,6-dimethylpiperazin-1-yl)phenyl)pyrazolo[1,5-a]pyrimidin-3-yl)-N-methylnaphthalene-1-sulfonamide]
10 | 397 nM | 15000 nM | 68 nM | 14 nM | > 10000 nM | 870 nM | > 10000 nM | > 10000 nM | c1cc(-c2cc[nH]n2)cc(-c2cnn3cc(-c4ccc(CCN5CCCCC5)cc4)cnc23)c1 [Compound 90, 3-(3-(1H-pyrazol-3-yl)phenyl)-6-(4-(2-(piperidin-1-yl)ethyl)phenyl)pyrazolo[1,5-a]pyrimidine]
11 | 68 nM | 1240 nM | 34 nM | 8.3 nM | 59 nM | 2810 nM | 21500 nM | 260 nM | NC(=O)c1cccc2c(-c3cnn4cc(-c5ccc(N6C[C@@H]7C[C@H]6CN7)cc5)cnc34)cccc12 [Compound 12, 5-(6-(4-((1S,4S)-2,5-diazabicyclo[2.2.1]heptan-2-yl)phenyl)pyrazolo[1,5-a]pyrimidin-3-yl)-1-naphthamide]
12 | 1850 nM | > 100000 nM | 160 nM | 35 nM | > 10000 nM | > 10000 nM | > 10000 nM | > 10000 nM | CN1CCC(c2ccc(-c3cnc4c(-c5ccc(S(N)(=O)=O)c6ccccc56)cnn4c3)cc2)CC1 [Compound 80, 4-(6-(4-(1-methylpiperidin-4-yl)phenyl)pyrazolo[1,5-a]pyrimidin-3-yl)naphthalene-1-sulfonamide]
13 | 479 nM | 30000 nM | 84 nM | 23 nM | 1800 nM | > 10000 nM | > 10000 nM | > 10000 nM | NS(=O)(=O)c1ccc(-c2cnn3cc(-c4ccc(OC5(CN6CCCCC6)COC5)cc4)cnc23)c2ccccc12 [Compound 87, 4-(6-(4-((3-(piperidin-1-ylmethyl)oxetan-3-yl)oxy)phenyl)pyrazolo[1,5-a]pyrimidin-3-yl)naphthalene-1-sulfonamide]

Source: patent US10513521B2, “Compositions and methods for inhibiting BMP” (The Brigham and Women's Hospital, Inc., priority 2014, dated 2019)
